≈ marks a conversion by molar mass, not a printed value.
Tests used:
Plasmodium falciparum [1] = test: In vivo antimalarial activity against Plasmodium falciparum infected in SCID mouse; type: functional
L6 = test: Cytotoxicity against rat L6 cells; type: functional, cell-based
Plasmodium falciparum [2] = test: Antimalarial activity against Plasmodium falciparum K1; type: functional, organism-based
Plasmodium falciparum [3] = test: Antimalarial activity against Plasmodium falciparum NF54; type: functional, organism-based
[4] = Dissociation constant, pKa of compound; type: physicochemical
Plasmodium falciparum [5] = test: Antimalarial activity against chloroquine sensitive Plasmodium falciparum 3D7 incubated for 72 hrs by malaria SYBR green I nucleic acid staining dye based fluorescence assay; type: functional, organism-based; conditions: 3D7, 72 h
Plasmodium falciparum [6] = test: Antimalarial activity against chloroquine resistant Plasmodium falciparum K1 incubated for 72 hrs by malaria SYBR green I nucleic acid staining dye based fluorescence assay; type: functional, organism-based; conditions: K1, 72 h
Plasmodium yoelii [7] = test: In vivo antimalarial activity against chloroquine resistant Plasmodium yoelii N-67 infected in Swiss albino mouse assessed as suppression of parasitemia at 25 mg/kg measured upto 28 days relative to control; type: functional; conditions: time <= 28 day
[8] = Drug elimination in human urine assessed as unchanged fraction; type: ADME; conditions: read-out: Drug excretion
[9] = Selectivity ratio of IC50 for Plasmodium falciparum B7 membrane recombinant Na+ dependent ATPase activity to IC50 for Plasmodium falciparum 3D7_2 membrane recombinant Na+ dependent ATPase activity
[10] = Inhibition of Plasmodium flaciparum 3D7_2 membrane recombinant ATP4 expressed in Escherichia coli BL21 (DE3) cells; set-up: species or system Plasmodium falciparum
[11] = Inhibition of Plasmodium flaciparum B7 membrane recombinant ATP4 expressed in Escherichia coli BL21 (DE3) cells; set-up: species or system Plasmodium falciparum
Plasmodium berghei [12] = test: In vivo antimalarial activity against Plasmodium berghei infected in mouse model; type: functional
[13] = target: Voltage-gated inwardly rectifying potassium channel KCNH2 (Homo sapiens, UniProt Q12809); test: Inhibition of human ERG; type: toxicity
CYP450 = CYP450 (Homo sapiens, UniProt P04798+P05177+P05181+P08684+P10632+P10635+P11509+P11712+P13584+P20813+P20815+P20853+P24462+P24903+P33260+P33261+P51589+P78329+P98187+Q02928+Q08477+Q16678+Q16696+Q5TCH4+Q6VVX0+Q7Z449+Q8TAV3+Q96SQ9+Q9HB55); test: Inhibition of CYP450 (unknown origin); type: ADME, protein assay
[14] = Inhibition of Plasmodium vivax DHODH
[15] = Inhibition of Plasmodium falciparum DHODH
Plasmodium falciparum [16] = test: Antimalarial activity against Plasmodium falciparum Dd2; type: functional, organism-based
HepG2 = test: Cytotoxicity against human HepG2 cells; type: functional, cell-based
Plasmodium falciparum [17] = test: Antimalarial activity against Plasmodium falciparum 3D7; type: functional, organism-based
[18] = Inhibition of Plasmodium vivax PI4K
[19] = tested on: Plasmodium yoelii nigeriensis; test: In vivo antimalarial activity against Plasmodium yoelii nigeriensis infected in Swiss mouse; type: functional
Plasmodium falciparum [20] = test: Antiplasmodial activity against chloroquine resistant Plasmodium falciparum K1 incubated for 72 hrs by malaria SYBR green I nucleic acid staining dye based fluorescence assay; type: functional, organism-based; conditions: K1, 72 h
[21] = Toxicity in Swiss mouse infected with Plasmodium yoelii N-67 assessed as survival rate at 12.5 mg/kg, po measured on day 4 relative to control; type: organism-based; conditions: in vivo, time 4 day, read-out: Activity
Plasmodium yoelii [22] = test: In vivo antimalarial activity against Plasmodium yoelii N-67 infected in Swiss mouse assessed as reduction in parasitemia level at 12.5 mg/kg, po measured on day 4 relative to control; type: functional; set-up: scale not given: the % may be the effect or the level left; conditions: time 4 day
Plasmodium falciparum [23] = test: Antiplasmodial activity against chloroquine sensitive Plasmodium falciparum 3D7 incubated for 72 hrs by malaria SYBR green I nucleic acid staining dye based fluorescence assay; type: functional, organism-based; conditions: 3D7, 72 h
[24] = Binding affinity to Plasmodium falciparum quadruple mutant DHFR assessed as inhibition constant
Plasmodium falciparum [25] = test: Antimalarial activity against chloroquine-sensitive Plasmodium falciparum 3D7 by Giemsa staining method; type: functional, organism-based
[26] = Cmax in mouse blood at 16 mg/kg, po measured upto 28 days by LC-MS analysis; type: ADME, organism-based; set-up: time < 28 day, dose 16 mg/kg, route po
Plasmodium falciparum [27] = test: Antimalarial activity against multidrug resistant Plasmodium falciparum TM90-C2B after 48 hrs in presence of [3H] hypoxanthine; type: functional, organism-based
Plasmodium falciparum [28] = test: Antimalarial activity against multidrug resistant Plasmodium falciparum W2 after 48 hrs in presence of [3H] hypoxanthine; type: functional, organism-based
Plasmodium berghei [29] = test: In vivo antimalarial activity against Plasmodium berghei infected in mouse administered po for 4 days by Peters 4 day test; type: functional; conditions: 96 h
Plasmodium falciparum [30] = test: Antimalarial activity against multidrug resistant Plasmodium falciparum MRA1239 after 48 hrs in presence of [3H] hypoxanthine; type: functional, organism-based
Plasmodium falciparum [31] = test: Antimalarial activity against multidrug resistant Plasmodium falciparum MRA1240 after 48 hrs in presence of [3H] hypoxanthine; type: functional, organism-based
[32] = Elimination half life in mouse blood at 16 mg/kg, po measured upto 28 days by LC-MS analysis; type: ADME, organism-based; conditions: time < 28 day, read-out: LambdaZ (converted)
Plasmodium berghei [33] = test: In vivo antimalarial activity against Plasmodium berghei infected in SCID mouse; type: functional

Sequence of Voltage-gated inwardly rectifying potassium channel KCNH2 (Q12809 whole entry): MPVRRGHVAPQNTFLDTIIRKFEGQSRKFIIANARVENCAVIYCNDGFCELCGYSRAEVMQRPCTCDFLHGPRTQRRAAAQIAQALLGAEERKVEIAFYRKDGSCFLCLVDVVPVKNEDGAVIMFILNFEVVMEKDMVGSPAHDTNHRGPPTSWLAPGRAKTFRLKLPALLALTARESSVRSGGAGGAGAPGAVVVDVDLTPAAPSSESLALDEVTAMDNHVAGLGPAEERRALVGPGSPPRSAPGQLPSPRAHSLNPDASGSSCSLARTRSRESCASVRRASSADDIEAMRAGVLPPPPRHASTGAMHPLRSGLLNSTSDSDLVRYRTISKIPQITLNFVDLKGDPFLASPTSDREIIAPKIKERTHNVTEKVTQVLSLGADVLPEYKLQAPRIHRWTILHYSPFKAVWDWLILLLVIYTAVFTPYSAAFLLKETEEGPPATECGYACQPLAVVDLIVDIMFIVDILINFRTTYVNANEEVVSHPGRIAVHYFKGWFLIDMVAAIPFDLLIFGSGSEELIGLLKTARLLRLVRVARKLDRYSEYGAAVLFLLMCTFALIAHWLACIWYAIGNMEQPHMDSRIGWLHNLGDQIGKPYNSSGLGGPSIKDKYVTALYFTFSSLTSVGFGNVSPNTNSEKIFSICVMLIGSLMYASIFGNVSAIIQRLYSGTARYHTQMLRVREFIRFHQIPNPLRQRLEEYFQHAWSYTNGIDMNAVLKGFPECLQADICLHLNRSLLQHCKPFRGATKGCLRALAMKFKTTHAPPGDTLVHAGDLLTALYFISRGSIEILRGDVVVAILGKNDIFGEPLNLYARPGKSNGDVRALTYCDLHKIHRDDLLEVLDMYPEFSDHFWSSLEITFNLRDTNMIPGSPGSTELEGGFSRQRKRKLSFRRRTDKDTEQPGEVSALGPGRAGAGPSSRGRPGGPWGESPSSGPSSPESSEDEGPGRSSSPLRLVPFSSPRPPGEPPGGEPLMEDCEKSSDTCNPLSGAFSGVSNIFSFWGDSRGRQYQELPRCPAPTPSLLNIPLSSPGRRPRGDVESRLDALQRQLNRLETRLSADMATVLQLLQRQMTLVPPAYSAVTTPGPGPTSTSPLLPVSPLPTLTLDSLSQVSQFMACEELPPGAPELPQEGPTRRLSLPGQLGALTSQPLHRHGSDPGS

## CC(=O)N1CCN(c2ccc(CN(C(=O)/C=C/c3ccc(C(F)(F)F)cc3)[C@@H](Cc3ccccc3)C(=O)N3CCN(Cc4ccc(N(C)CCO)cc4)CC3)cc2)CC1
Plasmodium falciparum [1]
  ED90: 8.4 mg/kg
L6
  IC50: 8.85 µM
Plasmodium falciparum [2]
  IC50: 0.00046 µM
Plasmodium falciparum [3]
  IC50: 0.01 µM
[4]
  pKa: 7.5

## CC(=O)N1CCN(c2ccc(CN(C(=O)/C=C/c3ccc(C(C)(C)C)cc3)[C@@H](Cc3ccccc3)C(=O)N3CCN(Cc4ccc(C#N)cc4)CC3)cc2)CC1
Plasmodium falciparum [1]
  ED90: 3.7 mg/kg
Plasmodium falciparum [2]
  IC50: 0.0003 µM
Plasmodium falciparum [3]
  IC50: 0.0004 µM
[4]
  pKa: 6.8

## CC(C)C[C@@H](CN1CCN(C)CC1)Nc1ccnc2cc(Cl)ccc12
Plasmodium falciparum [5]
  IC50: 0.0088 µM
Plasmodium falciparum [6]
  IC50: 0.0136 µM
Plasmodium yoelii [7]
  Activity: 100%

## COc1cc(NC(C)CCCN)c2ncccc2c1 (stereo unspecified) [PRIMAQUINE]
[8]
  dose excreted: < 1%

## CCC(CC)Nc1nc(C)c(C#N)c2ccccc12
[9]
  Ratio IC50: 6
[10]
  IC50: 0.07 µM
[11]
  IC50: 0.429 µM

## O=C(c1ccc(OC[C@H](O)Cn2ncnn2)cc1)N1CC[C@H](c2ccc(F)cc2)C1
[4]
  pKa: 12.6

## CC1(C)c2nc(-c3ccc(F)cc3)c(Nc3ccc(F)cc3)n2CCN1C(=O)CN [GANAPLACIDE]
Plasmodium berghei [12]
  ED99: 2.2 mg/kg
[13]
  IC50: 13.4 µM
CYP450
  IC50: > 6 µM
[4]
  pKa: 7.3

## Cc1cc(Nc2ccc(S(F)(F)(F)(F)F)cc2)n2nc(C(C)(F)F)nc2n1 [DSM-265]
[14]
  IC50: 0.0481 µM
Plasmodium falciparum [1]
  ED90: 3 mg/kg
[13]
  IC50: 1.66 µM
Plasmodium falciparum [2]
  IC50: 0.0026 µM
CYP450
  IC50: > 10 µg/mL
Plasmodium falciparum [3]
  IC50: 0.0018 µM

## NN1CN(c2ccc3ccccc3c2)C2=C(C(=O)CO2)C1=O
[15]
  IC50: 0.023 µM

## COc1ccc(NC(=O)N2CCCCN3[C@H](CN(C)C)[C@H](c4ccc(C#Cc5ccccc5)cc4)[C@@H]3C2)cc1
Plasmodium falciparum [16]
  EC50: 0.003 µM
HepG2
  CC50: 9 µM
Plasmodium falciparum [17]
  EC50: 0.009 µM
[13]
  IC50: 2.1 µM
[4]
  pKa: 5

## FC1CCN(CCOc2ccc(C3CCC4(CC3)OOC3(OO4)C4CC5CC(C4)CC3C5)cc2)CC1 (stereo unspecified)
Plasmodium falciparum [1]
  ED90: 11 mg/kg
Plasmodium falciparum [2]
  IC50: 0.0042 µM
CYP450
  IC50: > 20 µM
Plasmodium falciparum [3]
  IC50: 0.0052 µM
[4]
  pKa: 8.4

## CS(=O)(=O)c1ccc(-c2cnc(N)c(-c3ccc(C(F)(F)F)nc3)c2)cc1 [MMV-048]
[18]
  IC50: 0.0034 µM
Plasmodium falciparum [1]
  ED90: 0.57 mg/kg

## C=C(c1ccc(OC(C)(C)COC(=O)CCC(=O)O)cc1)C1COC2(OO1)C1CC3CC(C1)CC2C3 (stereo unspecified)
Plasmodium falciparum [17]
  IC50: 0.049 µM
[4]
  pKa: 4
[19]
  ED90: 18.3 mg/kg

## CCC1CCN(CC(CC(C)C)Nc2ccnc3cc(Cl)ccc23)CC1 (stereo unspecified)
Plasmodium falciparum [20]
  IC50: 0.0978 µM
[21]
  survival at 96 h: 100%
Plasmodium yoelii [22]
  Activity: 100%
Plasmodium falciparum [23]
  IC50: 0.057 µM

## CCc1nc(N)nc(N)c1OCCCOc1ccccc1CCC(=O)O
[4]
  pKa: 4.5
[24]
  Ki: 0.00054 µM

## O=[N+]([O-])c1cccc(-c2csc(Nc3nc(NNc4ccccc4)nc(NNc4ccccc4)n3)n2)c1
Plasmodium falciparum [25]
  IC50: 11.3 µg/mL (≈ 22 µM)

## CN(C(=S)NN=C(c1ccccn1)c1ccccn1)c1ccccc1
[26]
  Cmax: 1880 ng/mL
Plasmodium falciparum [27]
  EC50: 0.013 µM
Plasmodium falciparum [28]
  EC50: 0.0062 µM
Plasmodium berghei [29]
  ED50: 1.2 mg/kg/day
Plasmodium falciparum [30]
  EC50: 0.0069 µM
Plasmodium falciparum [31]
  EC50: 0.0091 µM
[32]
  half-life: 48.7 h

## COc1cc(NCCCC(C)N)c2ncccc2c1 (stereo unspecified) [QUINOCIDE]
[8]
  dose excreted: < 1%

## Nc1ncc(-c2ccc(C(=O)N3CCNCC3)cc2)nc1-c1ccc(C(F)(F)F)cc1
[18]
  IC50: 0.023 µM
Plasmodium berghei [33]
  ED90: 0.25 mg/kg
Plasmodium falciparum [2]
  IC50: 0.0047 µM
Plasmodium falciparum [3]
  IC50: 0.0054 µM
[4]
  pKa: 8.1

## COc1cc(NCCCCCNC(C)C)c2ncccc2c1 [PENTAQUINE]
[8]
  dose excreted: < 1%

## CC1CCCN(C[C@H](C)Nc2ccnc3cc(Cl)ccc23)C1 (stereo partly specified)
Plasmodium falciparum [5]
  IC50: 0.014 µM
Plasmodium falciparum [6]
  IC50: 0.021 µM
